In assay [1] the target is T1, Full length wild-type cereblon CRBN (Homo sapiens, UniProt Q96SW2).
T1 construct: Full length wild-type cereblon CRBN (80.0 nM, 10 μL) was incubated in assay buffer
Description: Fluorescence polarization (FP) assay indicating cereblon binding. The text has this: Protocol for Fluorescent Polarization Assay
Compound activity was monitored in a fluorescence polarization (FP) homogeneous assay using 1-[5-({2-[2-(2-{[2-(2,6-dioxopiperidin-3-yl)-1,3-dioxo-2,3-dihydro-1H-isoindol-4-yl]oxy}acetamido)ethoxy]ethyl}carbamoyl)pentyl]-3,3-dimethyl-2-[(1E,3E)-5-[(2E)-1,3,3-trimethyl-5-sulfo-2,3-dihydro-1H-indol-2-ylidene]penta-1,3-dien-1-yl]-3H-indol-1-ium-5-sulfonate as a fluorescent probe. Unless otherwise stated, all reagents were purchased from Sigma Aldrich. Enzymatic reactions were conducted in Perkin-Elmer Black 384 well ProxiPlate Plus (catalogue no. 6008269) in 10 μL total volume. Full length wild-type cereblon CRBN (80.0 nM, 10 μL) was incubated in assay buffer containing 20 mM HEPES (pH 8.0), […], 0.5 mM TCEP and 0.05% Tween 20 in the presence or absence of compound (300 nL). Inhibitors were stored as 10 mM DMSO stocks in an inert environment (low humidity, dark, low oxygen, room temperature) using the Storage Pod System. Compounds and DMSO were dispensed using the Echo E5XX (Labcyte Inc. USA) to give concentrations from 300 to 0.937 or 3000 to 9.3 nM in a 12 data point curve. […] Following incubation at room temperature for 30 min, the assay was initiated by dispensing the probe to a final concentration of 5 nM (2.5 nL of a 20 μM stock) using the Echo E5XX. FP was measured after a period of 12 hours using a Pherastar plate reader (BMG Labtech, Germany) exciting at 590 nm and measuring the amount of parallel and perpendicular light at 675 nm. The FP signal was subsequently normalized to the no-compound control (i.e., DMSO). Analysis and IC50 values were derived using Dotmatics (Dotmatics UK) software.
In general terms: In fluorescence polarisation assays a small probe gives low polarisation when free and higher when bound to something large.

The next assay concerns the target GSPT1 (Homo sapiens, UniProt P15170+Q96SW2). Description: Immunofluorescence assay for GSPT1 degradation in CAL-Si cells. The assay is classed as cell-based. Details: CAL-Si cells were purchased from DSMZ (cat. Number ACC302); host or cells: CAL-Si (CAL-51) cells. The settings on record: 6 hours treatment, read-out: Code: activity for GSPT1 degradation (DC50). On the procedure: The representative compounds were tested in an immunofluorescence assay for their activity to bind to degrade GSPT1. CAL-Si cells were purchased from DSMZ (cat. Number ACC302), sub-cultured in 90% Dulbecco's MEM (4.5 g/L glucose, Gibco 11965)+10% […] inactivated FBS (BioConcept, 2-01F136I) and incubated at 37° C., 5% CO2. For the assay, imaging microtiterplate Cell Carrier 96 Ultra (Perkin Elmer 6055302) were pre-coated with Fibronectin (Sigma F085, 30 μl at 0.2 μg/ml) in PBS (100 μl, Gibco 14190) for 45 min at room temperature, rinsed with PBS and CAL-Si cells (30K cells/well) were plated and let to adhere overnight. Cells were treated with compounds typically using a serial dilution ranging from 30 μM to 0.1 nM for 6 hours. Compounds were stored at 10 mM DMSO stocks. Vehicle (DMSO), positive (CC-885, 10 μM) and rescue controls (positive control plus 0.2 μM bortezomib) were also included at this stage. Cells were subsequently rinsed with PBS and fixed in 10% Formalin solution (50 μl, Sigma HT5011)) for 20 mins at room temperature. Following three consecutive PBS washes (100 μl), cells were permeabilized in 0.1% Triton X-100 in PBS (Sigma 93443, 50 μl) for 15 mins at room temperature. Following three further PBS washes, […] blocking buffer (1% BSA, Sigma A4503, in PBS) was added for 45 min for signal-to-noise reduction.
Primary antibody (human GSPT1, Sigma HPA052488) was diluted in blocking buffer (dil.1/300, 35 μl/well) and incubated with the cells overnight at 4° C. After three PBS washes, Alexa-fluor 488 coupled secondary antibodies (Invitrogen, A32731, dil.1/1000), Alexa-fluor 647-Phalloidin (Invitrogen, A22287, dil.1/200) and DAPI (Thermo, #62248, dil.1/1000) were diluted in blocking buffer and incubated with the samples for 2 hours at room temperature. After three final PBS washes, samples were conserved in […] PBS in the dark, until measurement. Image acquisition was performed on the Operetta High-Content Imager (Perkin-Elmer). Fluorescence intensity of Alexa-Fluor 488 (GSPT1), Alexa-Fluor 647 (Actin) and DAPI (Nucleus) were measured. For the determination of GSPT1 DC50 values, a custom algorithm implemented in the PerkinElmer image analysis software Harmony-Acapella® was developed. After user-defined setting of adjustment parameters, the analysis was run identically without human intervention for all image fields. DAPI staining of the nuclei was used to determine the location of cells using standard nuclei detection modules. Segmentation artifacts were removed by threshold-based filters for area, roundness and intensity. The outline of the cells was determined analogously from the sum of the normalized, smoothed DAPI and Actin channel, starting from each nucleus.
The Alexa-Fluor 488 (GSPT1) signal intensity in each cell was finally measured, in order to obtain a Mean intensity per cell. GSPT1 degradation (DC50) was calculated after normalization to controls and data import in CDD vault Database, using non-linear regression.

The mark [2] stands for this setting: cereblon binding, CRBN 80.0 nM, probe 5 nM, FP read after 12 hours, read-out: rFP IC50.
The mark [3] stands for this setting: fluorescence polarization assay, read-out: IC50 value (cereblon binding).

pIC50: −log10 of the molar value. Like-named read-outs stand apart in the source and are kept apart here.

By pIC50 is commonly meant −log10 of the IC50, conventionally taken in molar units. For orientation: DC50 means the midpoint of the concentration-degradation curve.

Chain of GSPT1 (P15170 whole entry): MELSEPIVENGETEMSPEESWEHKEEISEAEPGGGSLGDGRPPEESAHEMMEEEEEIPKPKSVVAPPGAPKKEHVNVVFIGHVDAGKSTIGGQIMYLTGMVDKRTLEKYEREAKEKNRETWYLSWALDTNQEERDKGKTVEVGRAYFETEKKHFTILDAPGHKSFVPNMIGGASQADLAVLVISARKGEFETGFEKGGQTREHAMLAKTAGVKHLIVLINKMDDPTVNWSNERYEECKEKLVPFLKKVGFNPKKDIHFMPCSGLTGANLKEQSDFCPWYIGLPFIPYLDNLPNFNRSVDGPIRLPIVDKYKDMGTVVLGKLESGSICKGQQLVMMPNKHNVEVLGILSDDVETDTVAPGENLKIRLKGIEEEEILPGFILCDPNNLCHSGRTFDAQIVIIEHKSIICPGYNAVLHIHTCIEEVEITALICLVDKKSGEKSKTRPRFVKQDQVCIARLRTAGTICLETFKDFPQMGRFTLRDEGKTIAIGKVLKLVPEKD
Chain of GSPT1 (Q96SW2 whole entry): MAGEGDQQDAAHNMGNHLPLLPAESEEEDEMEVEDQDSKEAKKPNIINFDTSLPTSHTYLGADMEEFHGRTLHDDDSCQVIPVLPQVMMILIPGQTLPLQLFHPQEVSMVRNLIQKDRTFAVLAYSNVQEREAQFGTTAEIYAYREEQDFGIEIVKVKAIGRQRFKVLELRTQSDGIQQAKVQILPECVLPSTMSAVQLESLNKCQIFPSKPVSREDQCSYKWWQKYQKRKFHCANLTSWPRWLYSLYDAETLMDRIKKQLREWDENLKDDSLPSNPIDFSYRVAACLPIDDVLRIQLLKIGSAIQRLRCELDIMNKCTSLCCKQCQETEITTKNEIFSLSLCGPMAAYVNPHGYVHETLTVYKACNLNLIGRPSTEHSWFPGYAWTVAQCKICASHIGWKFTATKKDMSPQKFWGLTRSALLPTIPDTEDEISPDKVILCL
Chain of GSPT1 (Q16531 whole entry partner): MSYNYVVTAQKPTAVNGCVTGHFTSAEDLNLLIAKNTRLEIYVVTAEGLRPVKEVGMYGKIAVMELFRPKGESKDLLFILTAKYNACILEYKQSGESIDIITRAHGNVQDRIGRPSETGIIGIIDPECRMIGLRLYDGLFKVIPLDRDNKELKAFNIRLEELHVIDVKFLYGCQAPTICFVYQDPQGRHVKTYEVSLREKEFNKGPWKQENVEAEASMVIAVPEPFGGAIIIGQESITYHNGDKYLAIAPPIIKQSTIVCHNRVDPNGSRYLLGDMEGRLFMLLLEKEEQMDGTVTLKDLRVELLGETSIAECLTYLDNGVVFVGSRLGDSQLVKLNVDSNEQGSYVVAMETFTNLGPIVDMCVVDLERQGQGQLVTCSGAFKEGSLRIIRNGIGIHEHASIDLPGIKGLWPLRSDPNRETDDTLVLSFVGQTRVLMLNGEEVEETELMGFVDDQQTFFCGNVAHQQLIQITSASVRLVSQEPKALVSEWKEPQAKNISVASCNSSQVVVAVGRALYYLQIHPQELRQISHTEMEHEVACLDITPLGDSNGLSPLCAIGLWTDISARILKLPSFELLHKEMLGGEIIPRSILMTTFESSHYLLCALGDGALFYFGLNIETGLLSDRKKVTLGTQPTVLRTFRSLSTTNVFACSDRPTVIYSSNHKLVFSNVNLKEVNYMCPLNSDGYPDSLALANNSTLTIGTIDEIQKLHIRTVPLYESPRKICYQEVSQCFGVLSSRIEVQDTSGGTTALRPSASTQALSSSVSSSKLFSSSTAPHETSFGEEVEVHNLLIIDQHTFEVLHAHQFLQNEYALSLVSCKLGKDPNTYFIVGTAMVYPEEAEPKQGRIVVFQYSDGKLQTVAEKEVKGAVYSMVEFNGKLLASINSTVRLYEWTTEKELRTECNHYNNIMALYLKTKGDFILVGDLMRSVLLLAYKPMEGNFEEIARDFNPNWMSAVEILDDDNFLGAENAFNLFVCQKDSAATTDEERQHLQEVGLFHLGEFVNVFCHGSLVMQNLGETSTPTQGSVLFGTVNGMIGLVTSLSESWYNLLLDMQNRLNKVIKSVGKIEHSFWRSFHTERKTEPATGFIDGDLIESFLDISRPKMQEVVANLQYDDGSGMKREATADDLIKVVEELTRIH
T1 sequence (Q96SW2 whole entry): as the sequence (Q96SW2 whole entry) above

With `Cc1c(Cl)cc(NC(=O)CCc2ccc3c(c2)C(=O)N(C2CCC(=O)NC2=O)C3)cc1OCC1CCN(C)C1` (stereo not drawn) [Compound 61], the figures for the pIC50 in assay [1] (setting [2]) and in assay [1] (setting [3]) were at least 6.30 and above 5.96, respectively. At GSPT1, the DC50 was above 300 nM.

Consider `CC(F)(F)c1ccc(NC(=O)CCc2ccc3c(c2)C(=O)N(C2CCC(=O)NC2=O)C3)cc1` (stereo not drawn) [Compound 63], for which the pIC50 in assay [1] (setting [2]) was at least 6.30; in assay [1] (setting [3]), above 5.96. Also, the DC50 at GSPT1 lay within 30 to 300 nM.

As for `Cc1ncc(NC(=O)CCc2ccc3c(c2)C(=O)N(C2CCC(=O)NC2=O)C3)cc1OC(F)(F)F` (stereo not drawn) [Compound 64], the pIC50 in assay [1] (setting [2]) was 5.77 to 5.96. The DC50 on GSPT1 lay in the range of 30 to 300 nM.

Take `CCc1cc(NC(=O)CCc2ccc3c(c2)C(=O)N(C2CCC(=O)NC2=O)C3)sn1` (stereo not drawn) [Compound 65]: the pIC50 in assay [1] (setting [2]) was below 5.77. The DC50 on GSPT1 fell in the range of 30 to 300 nM.

With `O=C1CCC(N2Cc3ccc(CCC(=O)Nc4cc(CN5CCOCC5)cc(OC(F)F)c4)cc3C2=O)C(=O)N1` (stereo not drawn) [Compound 66], the pIC50 in assay [1] (setting [2]) was below 5.77. For the same compound, at GSPT1, the DC50 lay in the range of 30 to 300 nM.

In the case of `Cc1c(Cl)cc(NC(=O)CNc2ccc3c(c2)C(=O)N(C2CCC(=O)NC2=O)C3)cc1CN1CCOCC1` (stereo not drawn) [Compound 67, N-(3-chloro-4-methyl-5-(morpholinomethyl)phenyl)-2-((2-(2,6-dioxopiperidin-3-yl)-3-oxoisoindolin-5-yl)amino)acetamide], in assay [1] (setting [2]), the pIC50 is at least 6.30. Also, the DC50 at GSPT1 is above 300 nM.

On to `Cc1c(Cl)cc(NC(=O)COc2ccc3c(c2)C(=O)N(C2CCC(=O)NC2=O)C3)cc1CN1CCOCC1` (stereo not drawn) [Compound 68, N-(3-chloro-4-methyl-5-(morpholinomethyl)phenyl)-2-((2-(2,6-dioxopiperidin-3-yl)-3-oxoisoindolin-5-yl)oxy)acetamide], for which the pIC50 in assay [1] (setting [2]) is at least 6.30. Also, the DC50 at GSPT1 is above 300 nM.

Turning to `Cc1ccc(NC(=O)COc2ccc3c(c2)C(=O)N(C2CCC(=O)NC2=O)C3)cc1Cl` (stereo not drawn) [Compound 69, N-(3-chloro-4-methylphenyl)-2-((2-(2,6-dioxopiperidin-3-yl)-3-oxoisoindolin-5-yl)oxy)acetamide], in assay [1] (setting [2]), the pIC50 is 5.96 to 6.30. Besides, the DC50 at GSPT1 is above 300 nM.

The values are drawn from patent US20240051937A1, “ISOINDOLINONE AMIDE COMPOUNDS USEFUL TO TREAT DISEASES ASSOCIATED WITH GSPT1” (Monte Rosa Therapeutics, Inc., priority 2021, published 2024).
